Source: patent US5873359A, “Methods and devices for treating pulmonary vasoconstriction and asthma” (The General Hospital Corporation, priority 1994, dated 1999)

How the values were obtained:
[1] = tested on: experimentally-elevated PA pressure; test: SNAP inhalation in sheep with experimentally-elevated PA pressure; format: in vivo; details: inhalation 1.3 mg/kg
Description: This method will provide a longer-lasting beneficial effect than briefly inhaling gaseous NO, as the deposited NO-releasing compound would slowly release NO over a relatively long period of time. Formulation and dosage of a selected NO-releasing compound can be determined without undue experimentation by one of ordinary skill in the art. As one example, a typical single inhaled dose of an NO-releasing compound such as S-nitroso-N-acetylpenicillamine (SNAP) or S-nitrosocysteine in dry powder form could range from 60 to 650 μg of the active compound (NO) per kg bodyweight, for approximately an hour of dilation.

Stability of SNAP = format: physicochemical; details: crystals at 0° C., up to 120 days, absorbance at 595 nm
Description: Alternatively, a mammal (in particular, a human) with or at risk of developing bronchoconstriction (e.g., asthma) or reversible pulmonary vasoconstriction may be treated with a therapeutically-effective amount of a nitric oxide-releasing compound. Known nitric oxide-releasing compounds (also referred to as nitric oxide-donor or nitric oxide-generating compounds) useful in the methods and devices of the invention can be divided into three categories: (a) nitroso or nitrosyl compounds (e.g., S-nitroso-N-acetylpenicillamine, S-nitroso-L-cysteine, and nitrosoguanidine) characterized by an --NO moiety that is spontaneously released or otherwise transferred from the compound under physiological conditions such as obtain in the lung; (b) compounds in which NO is a ligand on a transition metal complex, and as such is readily released or transferred from the compound under physiological conditions (e.g., nitroprusside, NO-ferredoxin, or an NO-heme complex); and (c) nitrogen-containing compounds which are metabolized by enzymes endogenous to the respiratory and/or vascular system to produce the NO radical (e.g., arginine, glyceryl trinitrate, isoamyl nitrite, inorganic nitrite, azide, and hydroxylamine). […]

[2] = tested on: methacholine bronchoconstriction; test: SNAP aerosol during methacholine bronchoconstriction; format: in vivo, Hartley strain guinea pigs; details: nebulized, 20 breaths, 5 guinea pigs (FIG. 16)
Procedure: Male Hartley strain guinea pigs (300-440g body wt) were anesthetized with α-chloralose (50 mg/kg) and urethane (500 mg/kg) (Drazen et al., J. Appl. Physiol. 48:613-618, 1980). A tracheostomy was performed, and the animals were intubated with a tubing adaptor (ID 1.65 mm) and ventilated with a small animal ventilator (Harvard Apparatus, a division of Ealing Scientific, Natick, Mass.) at 8 ml/kg and 60 breaths/min. A jugular vein was cannulated for intravenous administration of drugs. The chest was opened by bilateral excision of a portion of the ribs anteriorly so that the lungs were exposed to atmospheric pressure (Shore and Drazen, J. Appl. Physiol. 67:2504-2511, 1989). A positive end expiratory pressure of 3-4 cmH2 O was provided.
Guinea pigs were then placed inside a plethysmograph (Amdur and Mead, Am. J. Physiol. 192:363-368, 1958), that was connected to a large reservoir containing copper mesh to maintain the plethysmograph isothermal. Plethysmograph pressure was measured with a differential pressure transducer (Celesco, Canoga Park, Calif.); the opposite side of this transducer was connected to a similar reservoir. Pressure at the airway opening was measured from a side tap in the tracheal canula. Transpulmonary pressure was measured with a differential pressure transducer (Celesco) as the difference between airway opening pressure and the pressure inside the plethysmograph. […]

[3] = cited from earlier work

## CC(=O)N[C@H](C(=O)O)C(C)(C)SN=O (racemic) [SNAP, S-nitroso-N-acetylpenicillamine]
[1]
  PA pressure: prolonged reduction in PA pressure
Stability of SNAP
  degradation on storage: without detectable degradation
[2]
  duration of reduction of lung resistance: about 15 minutes
  lung resistance: prompt and profound reduction of lung resistance
[3]; solid form
  stability of solid form: stable in its solid form
[3]; under physiological conditions
  decomposition to release NO: readily decomposes to release NO
